# Source: PMC12848038, “O-GlcNAc and phosphorylation modifications on HtL1/FBA10 regulate wheat vernalization for flowering” (Nature Communications, 2025)
# Molecular target: T1, HtL1/FBA10 (HtL1-GST) (Triticum aestivum, UniProt A0A1D5VE13)
# T1 construct: gene LOC123071650; class I aldolase, homotetramer only predicted (SWISS-MODEL); cytosolic
# T1 sequence (A0A1D5VE13 1-358): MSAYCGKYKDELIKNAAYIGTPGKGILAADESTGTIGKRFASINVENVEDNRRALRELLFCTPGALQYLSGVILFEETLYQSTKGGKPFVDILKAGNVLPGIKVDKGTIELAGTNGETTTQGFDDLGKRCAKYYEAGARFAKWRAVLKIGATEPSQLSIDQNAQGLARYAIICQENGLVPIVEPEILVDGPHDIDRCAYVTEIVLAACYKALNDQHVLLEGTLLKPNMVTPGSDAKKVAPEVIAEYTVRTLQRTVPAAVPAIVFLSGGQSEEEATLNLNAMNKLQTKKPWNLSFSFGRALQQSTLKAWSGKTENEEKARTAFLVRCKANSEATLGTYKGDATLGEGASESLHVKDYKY
# Assay: fructose-1,6-bisphosphate aldolase activity assay kit, microplate reader; enzyme kinetic curve
# Type: biochemical
# Settings: GST fusion protein; no constant in text; kinetic curve only in figure
smiles,measurement,value
"O=P(O)(O)OC[C@H]1OC(O)(COP(=O)(O)O)[C@@H](O)[C@@H]1O (stereo partly shown) [FBP, fructose 1,6-bisphosphate]","fructose-1,6-bisphosphate aldolase activity assay kit, microplate reader; enzyme",Enzyme kinetic curves and activity assays collectively demonstrated that HtL1 exhibits fructose-bisphosphate aldolase activity
